In PMC8146939 (Biomedicines, 2021):

Target: T1, GIRK2 (Homo sapiens, UniProt P48051)
T1 construct: gene KCNJ6; homotetramer GIRK2
T1 sequence (P48051 1-423): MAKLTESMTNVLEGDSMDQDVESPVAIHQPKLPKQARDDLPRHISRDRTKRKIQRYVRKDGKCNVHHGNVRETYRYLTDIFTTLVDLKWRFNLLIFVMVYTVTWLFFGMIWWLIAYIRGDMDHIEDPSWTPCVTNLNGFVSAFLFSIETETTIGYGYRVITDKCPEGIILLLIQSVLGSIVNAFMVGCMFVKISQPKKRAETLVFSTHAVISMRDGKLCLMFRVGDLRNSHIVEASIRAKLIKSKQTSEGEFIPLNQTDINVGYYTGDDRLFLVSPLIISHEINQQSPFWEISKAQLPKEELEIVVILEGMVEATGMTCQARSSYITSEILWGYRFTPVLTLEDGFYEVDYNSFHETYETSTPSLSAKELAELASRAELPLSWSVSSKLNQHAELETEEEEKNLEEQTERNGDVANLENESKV
Assay: two-electrode voltage clamp in Xenopus oocytes expressing homotetrameric GIRK2, single concentration […]
Assay type: cell-based
Settings: read-out: % reduction in inward K+ currents at 10 μM

Cc1c(C(=O)c2cccc3ccccc23)c2cccc3c2n1[C@H](CN1CCOCC1)CO3 [WIN55,212-2]
inhibition at 10 µM: 8.91 ± 1.68%
